Laboratory results published in US20150065717A1, “NIPECOTIC ACID DERIVATIVE AND USE THEREOF FOR MEDICAL PURPOSES” (Toray Industries, Inc., priority 2012, published 2015).

Assays:
[1] = tested on: rat monocrotaline-administered pulmonary hypertension model; assay: Rat monocrotaline-administered pulmonary hypertension model, administration from day of monocrotaline; assay type: in vivo, rat (Wistar strain); conditions: for right ventricular systolic pressure vs pulmonary hypertension control group / right ventricular weight ratio vs pulmonary hypertension control group: Dunnett's test p<0.05; for heart rate vs pulmonary hypertension control group / systemic systolic pressure vs pulmonary hypertension control group: Dunnett's test
Experimental: Example Compound 1 or 2 was administered to a rat monocrotaline-administered pulmonary hypertension model (Journal of Pharmacological Sciences, 2009, vol. 111, p. 235-243), and the therapeutic effect of the nipecotic acid derivative (I) or a pharmaceutically acceptable salt thereof on pulmonary hypertension was evaluated.
Rats (Wistar strain, male, 5 weeks old; JAPAN SLC, Inc.) with pulmonary hypertension induced by subcutaneous administration of an aqueous monocrotaline (Sigma Corporation) solution (60 mg/kg) to the back were provided as “group with induced pulmonary hypertension”. On the other hand, rats to which water for injection was similarly administered were provided as “normal group”.
To rats in the group with induced pulmonary hypertension, Example Compound 1 (3, 10 or 30 mg/kg) or a positive control compound tadalafil (10 mg/kg) was orally administered once per day for 24 days from the day of administration of monocrotaline. The Example Compound 1 and tadalafil were used as suspensions in 0.5% aqueous methyl cellulose solution supplemented with 0.5% Tween 80. The groups in which Example Compound 1 was administered at doses of 3, 10 and 30 mg/kg were provided as “Example Compound 1 (3 mg/kg)-administered group”, “Example Compound 1 (10 mg/kg)-administered group” and “Example Compound 1 (30 mg/kg)-administered group”, respectively. The group in which tadalafil was administered at a dose of 10 mg/kg was provided as “tadalafil-administered group”. In addition, for comparative control, 0.5% aqueous methyl cellulose solution supplemented with 0.5% Tween 80 was similarly administered to rats in the group with induced pulmonary hypertension, to provide “pulmonary hypertension control group”. Similarly, 0.5% aqueous methyl cellulose solution supplemented with 0.5% Tween 80 was administered in the normal group.
On the next day of the last administration of the test substance, the right ventricular systolic pressure, systemic systolic pressure and heart rate were measured. The measurement of the right ventricular systolic pressure and the systemic systolic pressure was carried out using an amplifier for blood pressure measurement (Nihon Kohden Corporation). The measurement of the heart rate was carried out using an instant heart rate meter unit (Nihon Kohden Corporation). On the same day, the body weight, lung wet weight, and wet weights of the right ventricle, left ventricle and septum were measured to determine the right ventricular weight ratio (right ventricular weight/(septum weight+left ventricular weight)) and the lung weight ratio (lung weight/body weight).
The lungs were stored by immersion in formalin after measurement of the wet weight. The formalin-fixed lungs were embedded in paraffin, and sections were prepared. Immunostained tissue samples were prepared using an anti-sEH antibody to study expression of sEH. Pathological specimens were prepared by Elastica-van Gieson staining to study thickening of pulmonary arteries. Immunostained tissue samples were prepared using an anti-PCNA antibody to study cell growth. The right ventricle was stored by immersion in formalin after measurement of the wet weight. The formalin-fixed right ventricle was embedded in paraffin, and sections were prepared. Pathological specimens were prepared by HE staining to study myocardial hypertrophy.
The removed lungs were homogenized in a buffer, and 14,15-EET and 14,15-DHET were extracted. The extracted 14,15-EET was hydrolyzed for conversion to 14,15-DHET, and the 14,15-DHET concentration was measured by the ELISA method. The increase in the concentration of 14,15-DHET due to the hydrolysis was regarded as the 14,15-EET concentration, and the 14,15-EET/14,15-DHET ratio was determined.
FIGS. 4 to 6 show the results on the right ventricular systolic pressure, right ventricular weight ratio and lung weight ratio determined on the next day of the last administration of the test compound. […]

[2] = tested on: rat monocrotaline-administered pulmonary hypertension model; assay: Action on systemic blood pressure in rat monocrotaline-administered pulmonary hypertension model, single dose; assay type: in vivo, rat (SD strain); conditions: single oral dose of 10 mg/kg on day 9 after monocrotaline; Hour 1, 2, 3, 4, 5 and 6 after administration
Experimental: Example Compound 1 was administered to monocrotaline-administered pulmonary hypertension model rats in a single dose, and the action of the nipecotic acid derivative (I) or a pharmaceutically acceptable salt thereof on the systemic blood pressure from immediately after the administration was evaluated.
Pulmonary hypertension was induced in Rats (SD strain, male, 11 weeks old; Charles River Laboratories Japan, Inc.) by subcutaneous administration of an aqueous monocrotaline (Sigma Corporation) solution (60 mg/kg) to the back.
On Day 7 after administration of monocrotaline, the rats with induced pulmonary hypertension were anesthetized, and hair in the femoral region and the nape was removed, followed by disinfection of the operative field using Isodine solution. […] The blood pressure was analyzed after amplification by Blood Pressure Amplifier, and the heart rate was analyzed via Heart Rate Counter using the pulse waveform as a trigger. […] From immediately after administration of Example Compound 1 or 0.5% aqueous methyl cellulose solution supplemented with 0.5% Tween 80, the mean systemic blood pressure was measured at Hour 1, 2, 3, 4, 5 and 6 after administration.

[3] = 10 mg/kg orally once per day for 24 days from day of monocrotaline
[4] = 10 mg/kg orally once per day for 24 days
[5] = 3 mg/kg orally once per day for 24 days
[6] = 30 mg/kg orally once per day for 24 days from day of monocrotaline
[7] = 30 mg/kg orally once per day for 24 days

Compound | lung weight ratio vs pulmonary hypertension control group [1, 3] | right ventricular systolic pressure vs pulmonary hypertension control group [1, 3] | right ventricular weight ratio vs pulmonary hypertension control group [1, 3] | heart rate vs pulmonary hypertension control group [1, 4] | systemic systolic pressure vs pulmonary hypertension control group [1, 4] | mean systemic blood pressure vs pulmonary hypertension control group [2] | heart rate vs pulmonary hypertension control group [1, 5] | systemic systolic pressure vs pulmonary hypertension control group [1, 5] | thickening of pulmonary arteries in lungs vs pulmonary hypertension control group ([1]; 3 mg/kg, Elastica-van Gieson staining) | myocardial hypertrophy of the right ventricle vs pulmonary hypertension control group ([1]; 3 mg/kg, HE staining) | cell growth in lungs vs pulmonary hypertension control group ([1]; 3 mg/kg, anti-PCNA immunostaining) | 14,15-EET/14,15-DHET ratio in lungs vs pulmonary hypertension control group ([1]; 10 mg/kg, ELISA) | right ventricular systolic pressure vs pulmonary hypertension control group [1, 6] | right ventricular weight ratio vs pulmonary hypertension control group [1, 6] | heart rate vs pulmonary hypertension control group [1, 7] | systemic systolic pressure vs pulmonary hypertension control group [1, 7]
CC(C)(NS(C)(=O)=O)C(=O)N1CCC[C@@H](C(=O)NCc2ccc(C#N)cc2OC(F)(F)F)C1 [Example Compound 2, (R)—N-(4-cyano-2-(trifluoromethoxy)benzyl)-1-(2-methyl-2-(methylsulfonamido)propanoyl)piperidine-3-carboxamide] | lower | statistically significantly lower | statistically significantly lower | not significantly different | not significantly different | – | – | – | – | – | – | – | – | – | – | –
CCC(=O)NC1(C(=O)N2CCC[C@@H](C(=O)NCc3ccc(C#N)cc3OC(F)(F)F)C2)CCC1 [Example Compound 1, (R)—N-(4-cyano-2-(trifluoromethoxy)benzyl)-1-(1-propionamidocyclobutanecarbonyl)piperidine-3-carboxamide] | statistically significantly lower | statistically significantly lower | statistically significantly lower | not significantly different | not significantly different | no significant difference | not significantly different | not significantly different | less thickened pulmonary arteries | less myocardial hypertrophy | less cell growth | higher | statistically significantly lower | statistically significantly lower | not significantly different | not significantly different
